Measurements: US9475798B2, “Azetidine estrogen receptor modulators and uses thereof” (Genentech, Inc., priority 2013, dated 2016)

Key:
[1] = tested on: tamoxifen resistant MCF-7 tumors; assay: Breast Cancer Model; Xenograft Assay (MCF-7 Derivative); type: in vivo; details: female nu/nu mice
Method: Female nu/nu mice (with supplemental 17-β Estradiol pellets; 0.72 mg; 60 day slow release) bearing MCF-7 tumors (mean tumor volume 200 mm^3) were treated with Tamoxifen (citrate) by oral gavage. Tumor volume (length×width^2/2) and body weight were monitored twice weekly. Following a significant anti-tumor response in which tumor volume remained static, evident tumor growth was first observed at approximately 100 days of treatment. At 120 days of treatment, tamoxifen dose was increased. Rapidly growing tumors were deemed tamoxifen resistant and selected for in vivo passage into new host animals. Tumor Fragments (˜100 mm^3/animal) from the tamoxifen resistant tumors were subcutaneously implanted into the right flank of female nu/nu mice (with 17-β Estradiol pellets (0.72 mg; 60 day slow release)). Passaged tumors were maintained under constant Tamoxifen selection, and Tumor volume (length×width^2/2) was monitored weekly. When tumor volume reached ˜150-250 mm^3, animals were randomized into treatment groups (mean tumor volume 200 mm^3) and tamoxifen treatment was terminated (except for a tamoxifen control arm). Animals were treated with Vehicle or Compound daily for 4 weeks. Tumor volume and body weight were monitored twice weekly for the duration of the study. At the conclusion of the treatment period; plasma and tumor samples were taken for pharmacokinetic and pharmacodynamic analyses, respectively.

[2] = tested on: MCF-7 cells; assay: Breast Cancer Cell Viability Assay (MCF7, CellTiter-Glo); details: for MCF7 Viability Assay: % Viability relative to Fulvestrant: 5 days, 100-{100*[(100-% viability of Example)/(100-% viability of Fulvestrant)]}; for IC50: read-out: MCF7 Viability Assay IC50, 5 days' compound exposure;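 as to all read-outs here: CellTiter-Glo luminescence read-out, background from cell-free medium subtracted, viability expressed against untreated cells, ten-point 1:5 compound dilution series spanning 10 to 0.000005 µM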

| IC50 [2] [nM] | Structure (SMILES) | Number of Tumors Smaller at t = 27 days than at Start of study (t = 0 days) ([1]; 10mpk oral dose each day) | Number of Tumors Smaller at t = 27 days than at Start of study (t = 0 days) ([1]; 30mpk oral dose each day) | Number of Tumors Smaller at t = 27 days than at Start of study (t = 0 days) ([1]; 100mpk oral dose each day) | MCF7 Viability Assay: % Viability relative to Fulvestrant [2] [%] |
| --- | --- | --- | --- | --- | --- |
| 0.17 | CC1=C(c2ccc(F)cc2)[C@H](c2ccc(OCCN3CC(CF)C3)cc2)Oc2ccc(O)cc21 (single isomer, unassigned) [Example 3] | 2/8 | 3/8 | 5/8 | 8 |
| 0.13 | CC1=C(c2cccc(O)c2)[C@H](c2ccc(OC[C@H](C)N3CC[C@@H](C)C3)cc2)Oc2ccc(O)cc21 [(S)-3-(3-Hydroxyphenyl)-4-methyl-2-(4-((S)-2-((R)-3-methylpyrrolidin-1-yl)propoxy)phenyl)-2H-chromen-6-ol, reference compound] | 0/8 | 1/8 | 1/8 | 8 |
